As a reminder, the IC50 is the concentration at which inhibition is half-maximal. For orientation: EC50 means the concentration giving half of the maximal effect.

Like-named read-outs stand apart in the source and are kept apart here.

This passage reports IC50 and EC50 results from patent US12331044B2, “Inhibitors of histone deacetylase useful for the treatment or prevention of HIV infection” (Merck Sharp & Dohme LLC, priority 2018, dated 2025).

In assay [1] the target is T1, HDAC6 (Homo sapiens (Human), UniProt Q9UBN7). Briefly: biochemical.
The next assay concerns the target human HDAC2 (Homo sapiens (Human), UniProt Q92769). Briefly: HDAC2 inhibition assay (modified FLUOR DE LYS, 384-well). It is filed as biochemical.
For assay [2], the target named is T2, human HDAC1 (Homo sapiens (Human), UniProt Q13547). Briefly: biochemical.
A further assay addresses human HDAC8 (Homo sapiens (Human), UniProt Q9BY41). Kind of assay: HDAC8 inhibition assay (modified FLUOR DE LYS, 384-well). Type of assay: biochemical.
A further assay has as its system KARN cells (Jurkat 2C4). Kind of assay: cells. The conditions noted are these: Homo sapiens.
The target of assay [3] is T1, HDAC6.
The target of assay [4] is human HDAC3/SMRT heterodimer (Homo sapiens (Human), UniProt O15379).
The target of assay [5] is T2, human HDAC1.
Setting [6] is: […] nM enzyme, 40 μM substrate BML-KI104, 3 h pre-incubation, read-out: HDAC2 IC50.
[7] abbreviates: […] nM enzyme, 200 μM substrate BML-KI178, 3 h pre-incubation, read-out: HDAC8 IC50.
Setting [8] is: read-out: Karn EC50 nM 0.1% NHS, 0.1% normal human serum, luciferase induction, 2 μM SAHA = 100%.
Setting [9] is: read-out: Karn EC50 nM 5% NHS, 5% normal human serum, luciferase induction, 2 μM SAHA = 100%.
The mark [10] stands for this setting: […] enzyme, 40 μM substrate BML-KI104, 3 h pre-incubation, read-out: HDAC2 IC50.
Setting [11] is: […] enzyme, 200 μM substrate BML-KI178, 3 h pre-incubation, read-out: HDAC8 IC50.

Chain of human HDAC8 (Q9BY41 whole entry): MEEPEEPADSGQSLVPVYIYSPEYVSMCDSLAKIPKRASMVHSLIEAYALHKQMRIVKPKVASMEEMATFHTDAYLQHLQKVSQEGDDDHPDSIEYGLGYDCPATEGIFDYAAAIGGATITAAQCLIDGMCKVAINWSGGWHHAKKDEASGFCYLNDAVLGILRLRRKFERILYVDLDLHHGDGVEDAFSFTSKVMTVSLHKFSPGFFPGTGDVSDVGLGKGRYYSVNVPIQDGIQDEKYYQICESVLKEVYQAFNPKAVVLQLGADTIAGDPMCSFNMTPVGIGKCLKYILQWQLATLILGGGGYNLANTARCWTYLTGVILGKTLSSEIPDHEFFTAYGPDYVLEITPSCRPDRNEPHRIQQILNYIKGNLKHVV
T1 sequence (Q9UBN7 whole entry): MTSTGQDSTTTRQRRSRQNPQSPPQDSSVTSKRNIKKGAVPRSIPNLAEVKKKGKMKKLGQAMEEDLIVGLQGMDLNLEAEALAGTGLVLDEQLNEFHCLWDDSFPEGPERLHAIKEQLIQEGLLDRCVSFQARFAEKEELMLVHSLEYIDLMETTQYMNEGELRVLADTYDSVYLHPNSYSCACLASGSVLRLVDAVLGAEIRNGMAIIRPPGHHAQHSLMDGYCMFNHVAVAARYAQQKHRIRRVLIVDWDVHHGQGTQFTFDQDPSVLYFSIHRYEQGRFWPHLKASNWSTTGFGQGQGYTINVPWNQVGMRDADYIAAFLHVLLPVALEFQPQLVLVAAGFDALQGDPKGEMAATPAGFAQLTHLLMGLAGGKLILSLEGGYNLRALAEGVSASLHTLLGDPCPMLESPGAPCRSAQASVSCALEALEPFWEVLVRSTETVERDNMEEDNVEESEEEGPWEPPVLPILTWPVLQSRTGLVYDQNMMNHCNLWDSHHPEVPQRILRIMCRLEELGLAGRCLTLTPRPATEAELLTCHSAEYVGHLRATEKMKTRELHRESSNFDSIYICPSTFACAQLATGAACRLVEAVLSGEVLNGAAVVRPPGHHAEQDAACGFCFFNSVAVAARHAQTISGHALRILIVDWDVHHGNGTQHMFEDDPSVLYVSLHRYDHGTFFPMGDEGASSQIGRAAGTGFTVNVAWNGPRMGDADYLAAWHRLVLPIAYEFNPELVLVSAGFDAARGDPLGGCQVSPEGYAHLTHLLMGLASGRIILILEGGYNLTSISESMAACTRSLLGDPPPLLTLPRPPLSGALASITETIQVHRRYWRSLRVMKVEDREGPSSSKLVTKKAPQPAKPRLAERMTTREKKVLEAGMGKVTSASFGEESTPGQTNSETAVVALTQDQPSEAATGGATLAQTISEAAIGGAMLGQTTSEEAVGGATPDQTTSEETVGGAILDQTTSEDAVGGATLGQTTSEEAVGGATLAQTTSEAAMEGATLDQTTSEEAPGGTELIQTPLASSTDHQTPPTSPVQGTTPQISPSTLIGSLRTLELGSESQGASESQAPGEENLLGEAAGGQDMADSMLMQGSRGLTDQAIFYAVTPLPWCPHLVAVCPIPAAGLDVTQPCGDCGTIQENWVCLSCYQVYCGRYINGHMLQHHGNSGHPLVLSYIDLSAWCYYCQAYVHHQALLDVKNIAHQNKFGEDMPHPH
Chain of human HDAC3/SMRT heterodimer (O15379 whole entry): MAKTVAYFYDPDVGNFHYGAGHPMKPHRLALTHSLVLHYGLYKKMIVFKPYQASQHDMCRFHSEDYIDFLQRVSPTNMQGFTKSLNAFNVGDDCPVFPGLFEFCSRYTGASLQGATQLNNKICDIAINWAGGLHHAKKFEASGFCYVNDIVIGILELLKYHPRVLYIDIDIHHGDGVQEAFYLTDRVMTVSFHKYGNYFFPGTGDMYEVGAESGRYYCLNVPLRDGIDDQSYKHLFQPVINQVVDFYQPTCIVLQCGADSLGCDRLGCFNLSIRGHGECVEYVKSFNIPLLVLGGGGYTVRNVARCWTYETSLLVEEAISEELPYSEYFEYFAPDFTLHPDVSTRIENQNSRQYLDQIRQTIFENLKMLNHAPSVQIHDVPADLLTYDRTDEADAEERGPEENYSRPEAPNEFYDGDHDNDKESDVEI
Chain of human HDAC3/SMRT heterodimer (Q9Y618 1-899 partner): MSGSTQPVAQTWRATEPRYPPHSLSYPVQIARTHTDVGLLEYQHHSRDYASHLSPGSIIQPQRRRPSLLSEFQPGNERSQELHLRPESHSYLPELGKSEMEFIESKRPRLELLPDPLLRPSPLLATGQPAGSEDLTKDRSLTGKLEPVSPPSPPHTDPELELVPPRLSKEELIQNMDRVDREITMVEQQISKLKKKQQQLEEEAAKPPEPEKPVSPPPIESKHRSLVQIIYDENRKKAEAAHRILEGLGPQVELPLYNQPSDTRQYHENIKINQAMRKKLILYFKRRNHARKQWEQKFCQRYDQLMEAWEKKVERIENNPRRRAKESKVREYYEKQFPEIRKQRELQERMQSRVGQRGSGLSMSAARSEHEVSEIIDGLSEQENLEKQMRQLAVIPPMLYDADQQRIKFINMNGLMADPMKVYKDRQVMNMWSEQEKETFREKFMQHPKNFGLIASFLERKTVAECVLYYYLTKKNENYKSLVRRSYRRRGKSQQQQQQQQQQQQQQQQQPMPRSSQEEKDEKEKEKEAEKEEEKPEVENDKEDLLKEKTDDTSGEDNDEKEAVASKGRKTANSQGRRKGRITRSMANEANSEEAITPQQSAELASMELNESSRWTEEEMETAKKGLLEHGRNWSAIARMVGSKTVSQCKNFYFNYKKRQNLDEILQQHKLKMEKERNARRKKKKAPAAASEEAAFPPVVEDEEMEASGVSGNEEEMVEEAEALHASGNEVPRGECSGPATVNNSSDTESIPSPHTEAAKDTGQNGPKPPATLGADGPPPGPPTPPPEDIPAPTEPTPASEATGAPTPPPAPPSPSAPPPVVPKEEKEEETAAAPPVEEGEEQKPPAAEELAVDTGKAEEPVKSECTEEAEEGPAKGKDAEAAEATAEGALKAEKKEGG
Chain of human HDAC2 (Q92769 whole entry): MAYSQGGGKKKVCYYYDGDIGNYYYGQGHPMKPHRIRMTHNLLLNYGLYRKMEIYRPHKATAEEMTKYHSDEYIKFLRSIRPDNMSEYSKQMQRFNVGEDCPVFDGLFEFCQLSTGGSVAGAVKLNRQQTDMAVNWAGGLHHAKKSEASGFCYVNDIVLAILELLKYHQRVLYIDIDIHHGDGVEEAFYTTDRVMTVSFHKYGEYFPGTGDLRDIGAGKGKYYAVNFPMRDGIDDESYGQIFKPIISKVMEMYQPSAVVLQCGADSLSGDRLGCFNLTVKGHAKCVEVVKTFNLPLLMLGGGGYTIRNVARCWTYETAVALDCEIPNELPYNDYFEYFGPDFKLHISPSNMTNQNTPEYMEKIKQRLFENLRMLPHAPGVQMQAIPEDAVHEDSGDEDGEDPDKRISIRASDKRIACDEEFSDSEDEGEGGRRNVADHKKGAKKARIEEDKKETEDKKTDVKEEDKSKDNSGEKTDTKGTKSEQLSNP
T2 sequence (Q13547 whole entry): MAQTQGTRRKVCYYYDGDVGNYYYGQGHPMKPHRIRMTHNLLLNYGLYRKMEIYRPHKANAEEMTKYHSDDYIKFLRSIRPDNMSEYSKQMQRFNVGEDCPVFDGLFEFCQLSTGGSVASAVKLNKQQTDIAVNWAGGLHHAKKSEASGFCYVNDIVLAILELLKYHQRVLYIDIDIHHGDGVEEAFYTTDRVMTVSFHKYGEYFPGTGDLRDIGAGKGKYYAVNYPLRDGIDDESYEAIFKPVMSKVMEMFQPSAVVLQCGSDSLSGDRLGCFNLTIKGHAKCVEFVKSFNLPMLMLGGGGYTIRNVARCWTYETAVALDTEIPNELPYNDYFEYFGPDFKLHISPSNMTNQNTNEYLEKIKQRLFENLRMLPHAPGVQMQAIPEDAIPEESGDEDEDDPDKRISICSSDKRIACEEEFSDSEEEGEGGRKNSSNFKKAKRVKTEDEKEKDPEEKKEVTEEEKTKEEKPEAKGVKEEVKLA

Turning to `Cc1ccc2cc(-c3c[nH]c([C@@H](N)CCCCCC(=O)c4ncco4)n3)ccc2n1` [Example 9, (S)-7-amino-7-(4-(2-methylquinolin-6-yl)-1H-imidazol-2-yl)-1-(oxazol-2-yl)heptan-1-one], the concentration for half-maximal inhibition (IC50) against HDAC6 [1] came out at 2300 nM; on human HDAC2 (setting [6]), 12 nM; at human HDAC1 [2], 2.4 nM; at human HDAC8 (setting [7]) it was 2000 nM. The EC50 in the assay with KARN cells (Jurkat 2C4) (setting [8]) and in the assay with KARN cells (Jurkat 2C4) (setting [9]) was 160 nM throughout.

For the compound `COc1cc2nc(C)ccc2cc1-c1cnc([C@@H](N)CCCCCC(=O)c2ncco2)o1` [Example 27, (S)-7-amino-7-(5-(7-methoxy-2-methylquinolin-6-yl)oxazol-2-yl)-1-(oxazol-2-yl)heptan-1-one], the IC50 on HDAC6 [1] came to 1110 nM; on human HDAC2 (setting [6]), 9.5 nM; at human HDAC1 [2], 1.9 nM; at human HDAC8 (setting [7]), 1200 nM. Also, the half-maximal effective concentration (EC50) in the assay with KARN cells (Jurkat 2C4) (setting [8]) came out at 120 nM; in the assay on KARN cells (Jurkat 2C4) (setting [9]), 140 nM.

Consider `COc1cc2ncccc2cc1-c1c[nH]c([C@@H](N)CCCCCC(=O)c2ccon2)n1` [Example 34, (S)-7-amino-1-(isoxazol-3-yl)-7-(4-(7-methoxyquinolin-6-yl)-1H-imidazol-2-yl)heptan-1-one], for which the concentration for half-maximal inhibition (IC50) amounted to 5600 nM against HDAC6 [1], 5.1 nM at human HDAC2 (setting [6]), 1.4 nM against human HDAC1 [2] and 120 nM at human HDAC8 (setting [7]). In addition, the EC50 amounted to 23 nM with KARN cells (Jurkat 2C4) (setting [8]) and 44 nM in the assay on KARN cells (Jurkat 2C4) (setting [9]).

On to `N[C@@H](CCCCCC(=O)c1cocn1)c1ncc(-c2ccccc2F)[nH]1` [Example 36, (S)-7-amino-7-(5-(2-fluorophenyl)-1H-imidazol-2-yl)-1-(oxazol-4-yl)heptan-1-one], for which the IC50 against HDAC6 [1] and at human HDAC8 (setting [7]) was over 900 nM throughout.

`Cc1ccc2cc(-c3c[nH]c([C@H](CCCCCC(=O)c4ncco4)NC4CCN(C)CC4)n3)ccc2n1` [Example 78, (S)-7-((1-methylpiperidin-4-yl)amino)-7-(5-(2-methylquinolin-6-yl)-1H-imidazol-2-yl)-1-(oxazol-2-yl)heptan-1-one]: the IC50 against HDAC6 [1] is at least 45000 nM; on human HDAC2, 8.3 nM; against human HDAC1 [2], 2.8 nM; against human HDAC8, 6900 nM. Also, the values for the EC50 in the assay on KARN cells (Jurkat 2C4) (read-out: Karn EC50 nM 0.1% NHS) and with KARN cells (Jurkat 2C4) (read-out: Karn EC50 nM 5% NHS) were 660 nM and 620 nM, respectively.

As for `CN1CCC2(CC1)C[C@@H]2C(=O)N[C@@H](CCCCCC(=O)c1ncco1)c1[nH]c(-c2ccc(F)cc2)nc1C#N` [Example 187, (S)-N-((S)-1-(4-cyano-2-(4-fluorophenyl)-1H-imidazol-5-yl)-7-(oxazol-2-yl)-7-oxoheptyl)-6-methyl-6-azaspiro[2.5]octane-1-carboxamide], the IC50 turned out to be 0.83 nM on human HDAC2 (setting [10]); 45000 nM against HDAC6 [3]; 0.16 nM in assay [4]; 170 nM at human HDAC8 (setting [11]); 0.16 nM at human HDAC1 [5]. For the same compound, the concentration for a half-maximal effect (EC50) with KARN cells (Jurkat 2C4) (setting [8]) is 20 nM; in the assay on KARN cells (Jurkat 2C4) (setting [9]), 25 nM.

For `CN1CCC2(CC1)C[C@@H]2C(=O)N[C@@H](CCCCCC(=O)c1ncco1)c1oc(-c2ccc(F)cc2)nc1C#N` [Example 191, (S)-N-((S)-1-(4-cyano-2-(4-fluorophenyl)oxazol-5-yl)-7-(oxazol-2-yl)-7-oxoheptyl)-6-methyl-6-azaspiro[2.5]octane-1-carboxamide], the IC50 at human HDAC2 (setting [10]) turned out to be 12 nM; against HDAC6 [3] it was 45000 nM; in assay [4], 1.9 nM; at human HDAC8 (setting [11]), 2300 nM; against human HDAC1 [5], 2.5 nM. The results for the EC50 in the assay with KARN cells (Jurkat 2C4) (setting [8]) and in the assay on KARN cells (Jurkat 2C4) (setting [9]) were 110 nM and 100 nM, respectively.

Take `CN1CCC2(CC1)C[C@@H]2C(=O)N[C@@H](CCCCCC(=O)c1ccon1)c1nc(Cl)c(-c2ccc(F)cc2)[nH]1` [Example 195, (S)-N-((S)-1-(4-chloro-5-(4-fluorophenyl)-1H-imidazol-2-yl)-7-(isoxazol-3-yl)-7-oxoheptyl)-6-methyl-6-azaspiro[2.5]octane-1-carboxamide 2,3-dihydroxysuccinate]: the IC50 on human HDAC2 (setting [10]) was 0.32 nM; against HDAC6 [3] it was 3100 nM; in assay [4], 0.046 nM; on human HDAC8 (setting [11]), 9.6 nM; against human HDAC1 [5], 0.14 nM. The EC50 in the assay with KARN cells (Jurkat 2C4) (setting [8]) was 1.4 nM; with KARN cells (Jurkat 2C4) (setting [9]), 1.9 nM.
